Here are results for three compounds from US10080758B2, “Tosylate salt of N-[3-[(4aR,7aS)-2-amino-6-(5-fluoropyrimidin-2-yl)-4,4a,5,7-tetrahydropyrrolo[3,4-d][1,3]thiazin-7a-yl]-4-fluoro-phenyl]-5-methoxy-pyrazine-2-carboxamide” (Eli Lilly and Company, priority 2015, dated 2018).

Series [1] can be described thus: Solid state physical stability versus relative humidity. The format is physicochemical. The conditions noted are these: room temperature. From the text:
Such physical instability is undesirable, particularly for a pharmaceutical drug substance or drug product, both of which are subject to regulatory controls regarding the solid state forms. […] As such, the tosylate salt of N-{3-[(4aR,7aS)-2-amino-6-(5-fluoropyrimidin-2-yl)-4a,5,6,7-tetrahydropyrrolo[3,4-d][1,3]thiazin-7a(4H)-yl]-4-fluoro-phenyl}-5-methoxypyrazine-2-carboxamide essentially avoids the humidity dependent phase transformations associated with the corresponding crystalline free base forms. […] The increased likelihood of the free base to undergo phase transitions during long term storage can lead to variability in properties, such as solubility or dissolution rate, which may compromise the performance of the drug product. It also poses the additional risk of collapse of the crystal structure(s) to an amorphous form or accumulation of defects and disorder, which could lead to chemical instability and reduced shelf-life of the drug product.

The subject of series [2] is Abeta released by primary cortical neurons from PDAPP embryos. Description: PDAPP primary neuronal assay (Abeta ELISA). The conditions noted are these: Mus musculus, Primary cortical neuron; 24 hours incubation; Abeta 1-42; Mean ± SEM; read-out: PDAPP Neuron A-beta (1-42) ELISA IC50. The format is cell-based. On the technique in general: ELISA stands for enzyme-linked immunosorbent assay.

Another series concerns Abeta 1-x peptide. Put plainly: In vivo inhibition of beta-secretase (brain Abeta 1-x lowering). More on the design: species or system mice. The conditions noted are these: for Abeta 1-x peptide levels reduced, brain cortex / Abeta 1-x peptide levels reduced, brain hippocampus: three hours after administration, compared to vehicle-treated mice. An excerpt: Several animal models, including mouse, guinea pig, dog, and monkey, may be used to screen for inhibition of beta-secretase activity in vivo following compound treatment. Animals used in this invention can be wild type, transgenic, or gene knockout animals. For example, the PDAPP mouse model, prepared as described in Games et al., Nature 373, 523-527 (1995), and other non-transgenic or gene knockout animals are useful to analyze in vivo inhibition of Abeta and sAPPbeta production in the presence of inhibitory compounds. Generally, 2 to 12 month old PDAPP mice, gene knockout mice or non-transgenic animals are administered compound formulated in vehicles, such as corn oil, cyclodextran, phosphate buffers, […]®, or other suitable vehicles. One to twenty-four hours following the administration of compound, animals are sacrificed, and brains as well as cerebrospinal fluid and plasma are removed for analysis of Abetas, C99, and sAPP fragments. (See May, et al., Journal of Neuroscience, 31, 16507-16516 (2011)). For standard in vivo pharmacology studies, animals are dosed with various concentrations of compound and compared to a vehicle-treated control group dosed at the same time. For some time course studies, brain tissue, plasma, or cerebrospinal fluid is obtained from selected animals, beginning at time 0 to establish a baseline. Compound or appropriate vehicle is administered to other groups and sacrificed at various times after dosing. Brain tissue, plasma, or cerebrospinal fluid is obtained from selected animals and analyzed for the presence of APP cleavage products, including Abeta peptides, sAPPbeta, and other APP fragments, for example, by specific sandwich ELISA assays. At the end of the test period, animals are sacrificed and brain tissues, plasma, or cerebrospinal fluid are analyzed for the presence of Abeta peptides, C99, and sAPPbeta, as appropriate. Brain tissues of APP transgenic animals may also be analyzed for the amount of beta-amyloid plaques following compound treatment. “Abeta 1-x peptide” as used herein refers to the sum of Abeta species that begin with residue 1 and ending with a C-terminus greater than residue 28. This detects the majority of Abeta species and is often called “total Abeta”.

Series [3] in a line: Solvent retained in the crystal. The series is classed as physicochemical.

Structures are written as SMILES.

`COc1cnc(C(=O)Nc2ccc(F)c([C@]34CN(c5ncc(F)cn5)C[C@@H]3CN=C(N)S4)c2)cn1.O` [Crystalline Form 2, Crystalline Form 2 N-[3-[(4aR,7aS)-2-Amino-6-(5-fluoropyrimidin-2-yl)-4,4a,5,7-tetrahydropyrrolo[3,4-d][1,3]thiazin-7a-yl]-4-fluoro-phenyl]-5-methoxy-pyrazine-2-carboxamide (Hydrated)]: the figures for the “relative humidity at which the crystal form is present / stable” value in series [1] and in series [1] (listed as crystalline form 2) were “greater than 15 % relative humidity” and “above 15 % relative humidity”, respectively.
Turning to `COc1cnc(C(=O)Nc2ccc(F)c([C@]34CN(c5ncc(F)cn5)C[C@H]3CSC(N)=N4)c2)cn1.Cl` [Preparation 46, N-[3-[(4aR,7aS)-2-Amino-6-(5-fluoropyrimidin-2-yl)-4,4a,5,7-tetrahydropyrrolo[3,4-d][1,3]thiazin-7a-yl]-4-fluoro-phenyl]-5-methoxy-pyrazine-2-carboxamide hydrochloride], the IC50 in series [2] was 0.228 nM. Besides, the “Abeta 1-x peptide levels reduced, brain cortex” value with Abeta 1-x peptide (0.3 mg/kg oral dose) is “approximately 28%”; in the series on Abeta 1-x peptide (1 mg/kg oral dose) it was ~42%; with Abeta 1-x peptide (3 mg/kg oral dose) it was ~64%. For the same compound, the “Abeta 1-x peptide levels reduced, brain hippocampus” value with Abeta 1-x peptide (0.3 mg/kg oral dose) is “approximately 31%”; in the series with Abeta 1-x peptide (1 mg/kg oral dose) it was ~39%; in the series on Abeta 1-x peptide (3 mg/kg oral dose) it was ~61%. Also, in series [3], the “amount of solvent retained in the crystal” value is “about 7.7%”.
As for `COc1cnc(C(=O)Nc2ccc(F)c([C@]34CN(c5ncc(F)cn5)C[C@H]3CSC(N)=N4)c2)cn1` [N-[3-[(4aR,7aS)-2-amino-6-(5-fluoropyrimidin-2-yl)-4,4a,5,7-tetrahydropyrrolo[3,4-d][1,3]thiazin-7a-yl]-4-fluoro-phenyl]-5-methoxy-pyrazine-2-carboxamide], the CNS penetration entry in the series on Abeta 1-x peptide is given as “demonstrate CNS penetration”.

Usually IC50 stands for the midpoint of a concentration-inhibition curve.
